Structures can show the parent of a compound that is named as a salt.
What was measured:
[1] = system: IL-6 production by HUVEC cells; assay: Inhibition of histamine-induced IL-6 mRNA production (RT-PCR against HPRT); format: cell-based, human; conditions: 5 hours
Excerpt: Various assays also exist for identifying a highest pharmacological activity enantiomer of a given pharmacologically active agent. Where the pharmaceutical activity is as a histamine antagonist, IL-6 production by HUVEC cells is a cell biomarker of histamine activity and is used to assess the relative antagonistic activity of prospective H1 blockers. IL-6 production in human endothelial cells is known to be induced by histamine due to H1 and H2 receptor binding with H1 the dominant effect. Delneste, et al. As H1 antagonism is directly linked to reduced emesis during motion sickness treatment, this assay serves as an in vitro methodology for the selection of potential motion sickness and antihistamine candidates. Realtime RT-PCR analysis of IL-6 mRNA synthesis in HUVEC cells stimulated with histamine is employed as an in vitro assay for the analysis of the relative efficacy of potential antihistaminic agents.
A preferred assay for measuring activity of phenothiazine and other histamine antagonists comprises: providing at least a first viable culture and a second viable culture comprising Huvec cells; exposing the first viable culture to a first combination comprising histamine and the (+)-enantiomer of the phenothiazine under conditions effective to inhibit IL-6 mRNA expression; exposing the second viable culture to a combination comprising histamine and the (−)-enantiomer of the phenothiazine under conditions effective to inhibit IL-6 mRNA expression; measuring inhibition of IL-6 mRNA expression induced by the first combination and the second combination after at least four hours to identify a (+)-enantiomer inhibition value and a (−)-enantiomer inhibition value; and selecting as the highest pharmacological activity enantiomer the enantiomer having the greater inhibition value selected from the group consisting of the (+)-enantiomer inhibition value and the (−)-enantiomer inhibition value.
Huvec cells were plated and grown to confluence in 6-well plates. […] Total RNA was isolated using Tri-reagent and subjected to reverse transcription polymerase chain reaction (RT-PCR) analysis of IL-6 production using semiquantitative analysis against HPRT expression (control gene).
The procedures of Example 3 were repeated using the (+)-enantiomer (#2) and the (−)-enantiomer (#1) of EPZ at 10^−5 molar and 10^−6 molar, and TPZ at 10^−5 molar.

L929 lung fibroblast = conditions: shown by previous studies; cited from earlier work
[2] = encapsulated in a variety of shell materials, administered to beagles; cited from earlier work

## NCCc1c[nH]cn1 [Histamine]
[1]; Histamine alone 10^−4 M, versus endogenous production
  increase in IL-6 mRNA production: 50%

## CC(CN1c2ccccc2Sc2ccccc21)N(C)C.Cl (single isomer, unassigned; (-)) [(−) enantiomer, (−)-Promethazine hydrochloride]
[1]; 10^−5 M with Histamine 10^−4 M
  reduction in IL-6 production: 50%

## C=C(C)C(=O)OCC(O)COc1ccc(C(C)(C)c2ccc(OCC(O)COC(=O)C(=C)C)cc2)cc1 (stereo not drawn) [BisGMA]
L929 lung fibroblast
  cytotoxicity of control in this assay: significantly cytotoxic

## CC(CN1c2ccccc2Sc2ccccc21)N(C)C.Cl (single isomer, unassigned; (+)) [(+) enantiomer, (+)-Promethazine hydrochloride]
[1]; 10^−5 M with Histamine 10^−4 M
  IL-6 production reduced to % of the histamine stimulated cell: 90%

## CC(CN1c2ccccc2Sc2ccccc21)N(C)C (racemic) [Promethazine, promethazine hydrochloride]
[2]
  nasal irritation: severe nasal irritation was observed
[1]; 10^−5 M with Histamine 10^−4 M, relative to cells stimulated only with histamine
  inhibition of histamine stimulation of IL-6 production: 50%

— patent US20050220888A1, “Controlled release compositions and methods for using same” (priority 2002, published 2005)
